Experimental data from patent publication US8815811B2, “Peptides and methods for their preparation and use” (Eli Lilly and Company, priority 2010, dated 2014).
Where no end group is shown, it is not given here. [ ]: non-standard residue; d: D form. 1Nal = N[C@@H](Cc1cccc2ccccc12)C(=O)O; Aib = CC(C)(N)C(=O)O

Columns and labels:
DIO mice = assay: Oral glucose tolerance test after 2-week treatment in DIO mice; format: in vivo; settings: for Glucose AUC, MEAN: OGTT
Description: Fifty-six hours after the last injection of compound in the DIO study above the animals were subjected to an oral glucose tolerance test. In short, mice were fasted for 16 hours prior to the start of the glucose tolerance test. At time 0, animals are given 2 g/kg dextrose by oral gavage. Blood is collected by tail bleeding taken 0, 15, 30, 60 and 120 minutes after glucose challenge. Glucose concentration is measured by glucometer.

Normal male Wistar rats = assay: Intravenous glucose tolerance test in normal rats; format: in vivo; settings: IVGTT; for insulin AUC: 0 to 30 min
Description: Effects on Blood Glucose Excursion During an Intravenous Glucose Tolerance Test in Normal Rats
Normal male Wistar rats (225-250 g) are used in the study. Animals are randomized into groups based on fed body weight and blood glucose. Animals are injected with vehicle or peptide analog (dose 3-400 μg peptide content/kg) 16 hours prior to the start of the test. Food is removed at the time of injection. Prior to the assay the animals are put under anesthesia, Phenobarbital 65 mg/kg i.p., and two catheters are inserted, one in the jugular vein and the other in the carotid artery. At time 0, animals are given 0.5 g glucose/kg through the venous catheter. Blood is collected from the carotid artery at time 0 (pre glucose), 2, 4, 6, 10, 20 and 30 minutes after glucose challenge. Glucose concentration is measured by glucometer. Insulin is measured by Mesoscale®. Efficacy is measured as the increase in total area under the insulin curve (=integrated plasma insulin values from t+0 to 30 min) as well as the area under the glucose curve which is a measure of the glucose excursion following the intravenous glucose challenge.

[1] = system: diet-induced obese (DIO) mice; assay: Effects on food intake, body weight and body composition in DIO mice; format: in vivo; settings: for Fat mass loss (g fat weight change for 14 days) / Overall weight loss (g weight change for 14 days) / Total food intake (g total for 14 days): DIO mice
Description: Effects on Food Intake, Body Weight and Body Composition in Diet-Induced Obese (DIO) Mice
Three to four months old male diet-induced obese (DIO) mice are used. Animals are individually housed in a temperature-controlled (24° C.) facility with a 12 hour light/dark cycle (lights on 22:00), and have free access to food and water. After 2 weeks acclimation to the facility, mice are randomized to treatment groups (n=8-10/group) so that each group has similar mean body weight and fat mass. Before the experiment, mice are subcutaneously (sc) injected with vehicle solution and weighed for 7 days to acclimate them to the procedures.
Vehicle or peptide analog (dose range 10-100 nmol/Kg) dissolved in vehicle is administered by sc injection to ad libitum fed DIO mice 30-90 minutes prior to the onset of the dark cycle […] for 2 to 4 weeks. Body weight and the weight of food plus the hopper are measured at the same time. Food consumed in the last 24 hours is calculated by subtracting current weight of food plus the hopper from that of the previous day. Absolute changes in body weight are calculated by subtracting the body weight of the animal prior to the first injection. On days −1 and 14, total fat mass is measured by nuclear magnetic resonance (NMR) using an Echo Medical System (Houston, Tex.) instrument. Fat free mass is calculated by subtracting fat mass from total body weight.

hGlucR = target: T1, hGlucR (Homo sapiens, UniProt P47871); assay: Glucagon receptor (hGlucR) binding assay (SPA, I-125 glucagon); settings: hGlucR 293HEK membranes
T1 construct: expressed in transfected cells; host or cells: 293HEK, Hygromycin-selected, phD expression plasmid
T1 sequence (P47871 26-477): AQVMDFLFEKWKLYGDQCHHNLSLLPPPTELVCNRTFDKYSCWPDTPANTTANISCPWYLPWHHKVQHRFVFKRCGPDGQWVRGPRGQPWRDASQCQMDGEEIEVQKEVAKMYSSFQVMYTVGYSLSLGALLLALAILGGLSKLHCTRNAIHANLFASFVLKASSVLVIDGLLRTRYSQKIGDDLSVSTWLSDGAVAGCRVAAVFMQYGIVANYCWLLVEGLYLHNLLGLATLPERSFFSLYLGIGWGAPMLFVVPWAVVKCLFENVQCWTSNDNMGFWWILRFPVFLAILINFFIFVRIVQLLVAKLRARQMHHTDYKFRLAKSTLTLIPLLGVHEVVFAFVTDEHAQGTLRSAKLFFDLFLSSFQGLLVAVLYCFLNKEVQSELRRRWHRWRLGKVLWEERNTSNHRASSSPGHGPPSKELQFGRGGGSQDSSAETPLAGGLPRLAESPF
Description: The hGlucR cDNA is subcloned into the expression plasmid phD (Trans-activated expression of fully gamma-carboxylated recombinant human protein C, an antithrombotic factor. Grinnell, B. W., et. al., Bio/Technology 5: 1189-1192 (1987)). This plasmid DNA is transfected into 293HEK cells and selected with 200 μg/mL Hygromycin.
Crude plasma membranes are prepared using cells from suspension culture. The cells are lysed on ice in hypotonic buffer containing 25 mM Tris HCl, pH 7.5, 1 mM MgCl2, DNAse1, 20 μ/mL, and Roche Complete™ Inhibitors without EDTA. The cell suspension is homogenized with a glass dounce homogenizer using a Teflon® pestle for 25 strokes. The homogenate is centrifuged at 4° C. at 1800×g for 15 minutes. The supernatant is collected and the pellet is resuspended in hypotonic buffer and rehomogenized. The mixture is centrifuged at 1800×g for 15 minutes. The second supernatant is combined with the first supernatant. […]
The binding buffer contains 25 mM 4-(2-hydroxyethyl)-1-piperazineethanesulfonic acid (HEPES), pH 7.4, 2.5 mM CaCl2, 1 mM MgCl2, 0.1% fatty acid free BSA, 0.003% Tween20, and Roche Complete™ Inhibitors without EDTA. […] Plates are read with a PerkinElmer Life and Analytical Sciences Trilux MicroBeta® scintillation counter after 12 hours of settling time at room temperature.
Results are calculated as a percent of specific I-125-glucagon binding in the presence of compound. […]

[2] = system: diet-induced obese Long Evans rats; assay: Effects on food intake, body weight, body composition and plasma lipids in DIO Long Evans rats; format: in vivo
Description: Four to five months old male diet-induced obese Long Evans rats are used. Animals are individually housed in a temperature-controlled (24° C.) facility with a 12 hour light/dark cycle (lights on 22:00), and have free access to food (diet TD95217) and water. Animals are acclimated to the facility for at least 2 weeks. On day 0, body composition is determined by QNMR and rats are randomized to respective groups (n=6/group) based on body weight, % fat, and % lean mass. Compound is administered by subcutaneous injection on days 1, 4, 8, 11, and 15. […] After CO2 euthanasia, blood samples are taken by cardiac stick for analysis of exposure determination.

Substance: Aib^2, Aib^13, Nal^22, Aib^29, Cys^43(PEG20K), Cys^44 (PEG20K)-GIP [Example 5] (Y[Aib]EGTFTSDYSI[Aib]LDKIAQRA[1Nal]VQWLIA[Aib]KGKKQEWKHQITQCC-NH2; not fully specified (residues 43, 44); cysteine pairing not given here) [Nal22 GIP analog PEGylated at Cys 43 and 44 with 20 kDa mPEG iodoacetamide]
- Glucose AUC, MEAN (DIO mice; Table 7b, 10 nmol/Kg): 14332 mg·min/dL
- Glucose AUC, MEAN (DIO mice; Table 7b, 30 nmol/Kg): 12474 mg·min/dL
- glucose AUC (Normal male Wistar rats; 50 μg/Kg): 7202 mg·min/dL
- insulin AUC (Normal male Wistar rats; 50 μg/Kg 16 hours before test): 133 ng·min/mL
- glucose AUC (Normal male Wistar rats; 200 μg/Kg): 7351 mg·min/dL
- insulin AUC (Normal male Wistar rats; 200 μg/Kg 16 hours before test): 124 ng·min/mL
- Fat mass loss (g fat weight change for 14 days) ([1]; Table 6b, 10 nmol/Kg): -2.4 ± 0.3 g
- Overall weight loss (g weight change for 14 days) ([1]; Table 6b, 10 nmol/Kg): -3.2 ± 0.3 g
- Total food intake (g total for 14 days) ([1]; Table 6b, 10 nmol/Kg): 31.0 ± 1.0 g
- Fat mass loss (g fat weight change for 14 days) ([1]; Table 6b, 30 nmol/Kg): -3.6 ± 0.4 g
- Overall weight loss (g weight change for 14 days) ([1]; Table 6b, 30 nmol/Kg): -5.0 ± 0.4 g
- Total food intake (g total for 14 days) ([1]; Table 6b, 30 nmol/Kg): 26.7 ± 0.7 g

Substance: Aib^2, Aib^13, Aib^29, Cys^43(PEG20K), Cys^44 (PEG20K)-GIP (Y[Aib]EGTFTSDYSI[Aib]LDKIAQRAFVQWLIA[Aib]KGKKQEWKHQITQC(PEG 20 kDa)C(PEG 20 kDa)-NH2) [Example 3, GIP analog PEGylated at Cys 43 and 44 with 20 kDa mPEG maleimide]
- Ki (hGlucR): > 7.89 µM
- glucose excursion following an oral glucose load (DIO mice; DIO mice, summary of Tables 7a and 7b): significantly reduced
- Glucose AUC, MEAN (DIO mice; Table 7a, 30 nmol/Kg): 10293 mg·min/dL
- Glucose AUC, MEAN (DIO mice; Table 7a, 100 nmol/Kg): 10892 mg·min/dL
- insulin AUC and glucose AUC compared to vehicle-treated rats (Normal male Wistar rats): increased insulin AUC and decreased glucose AUC
- glucose AUC (Normal male Wistar rats; 50 μg/Kg): 6780 mg·min/dL
- insulin AUC (Normal male Wistar rats; 50 μg/Kg 16 hours before test): 137 ng·min/mL
- glucose AUC (Normal male Wistar rats; 200 μg/Kg): 7020 mg·min/dL
- insulin AUC (Normal male Wistar rats; 200 μg/Kg 16 hours before test): 183 ng·min/mL
- cumulative food intake and body weight compared to vehicle-treated mice ([1]; 14-day DIO mouse studies, summary of Tables 6a and 6b): decreased
- Fat mass loss (g fat weight change for 14 days) ([1]; Table 6a, 30 nmol/Kg): -4.3 ± 0.3 g
- Total food intake (g total for 14 days) ([1]; Table 6a, 30 nmol/Kg): 26.5 ± 1.5 g
- Overall weight loss (g weight change for 14 days) ([1]; Table 6a, 30 nmol/Kg sc every 3 days): -5.5 ± 0.4 g
- Fat mass loss (g fat weight change for 14 days) ([1]; Table 6a, 100 nmol/Kg): -5.6 ± 0.2 g
- Total food intake (g total for 14 days) ([1]; Table 6a, 100 nmol/Kg): 23.4 ± 0.7 g
- Overall weight loss (g weight change for 14 days) ([1]; Table 6a, 100 nmol/Kg sc every 3 days): -7.0 ± 0.3 g
- free fatty acids (plasma) ([2]; 10 nmol/Kg): 0.94 mEq/L
- total cholesterol (plasma) ([2]; 10 nmol/Kg): 91 mg/dL
- triglycerides (plasma) ([2]; 10 nmol/Kg): 262.1 mg/dL
- fat mass reduced ([2]; 10 nmol/Kg over 16 days): 1.3%
- lean mass increased ([2]; 10 nmol/Kg over 16 days): 0.6%
- free fatty acids (plasma) ([2]; 30 nmol/Kg): 1.01 mEq/L
- total cholesterol (plasma) ([2]; 30 nmol/Kg): 94 mg/dL
- triglycerides (plasma) ([2]; 30 nmol/Kg): 233.5 mg/dL
- fat mass reduced ([2]; 30 nmol/Kg over 16 days): 2.3%
- lean mass increased ([2]; 30 nmol/Kg over 16 days): 1.3%
- changes in body weight and body composition compared to vehicle-treated DIO rats ([2]; over 16 days): increasing the percentage of lean mass and decreasing the percentage of fat mass
- amount of free fatty acids ([2]; versus vehicle): increased
- amounts of plasma lipids, including triglycerides and total cholesterol ([2]; versus vehicle): lowered
